Holding throughout (assay): relative viability (nuclei count vs DMSO), 5 days (fraction); higher = more cells survive
Compound in the experiment “Metformin + Lapatinib”: CN(C)C(=N)NC(=N)N [Metformin] + CS(=O)(=O)CCNCc1ccc(-c2ccc3ncnc(Nc4ccc(OCc5cccc(F)c5)c(Cl)c4)c3c2)o1 [Lapatinib] (partner 2 µM)
In short, it runs like this: (§1)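 The day after seeding in 1536-well plates, lung cancer cell lines were treated by pin tool with a single drug, or with a fixed anchor-drug dose together with five library-drug doses (not always all listed) in √10 steps. After 5 days, a combined fix-and-stain solution (final 0.05% Triton X-100, 1% formaldehyde, 1 ug/ml Hoechst) was added. Nuclei counted on 4× images gave relative viability as treated counts over vehicle counts, reported as the median of duplicate plates.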

Compound in the experiment “Apatinib + OSI-027”: N#CC1(c2ccc(NC(=O)c3cccnc3NCc3ccncc3)cc2)CCCC1 [Apatinib] + COc1cccc2cc(-c3nc([C@H]4CC[C@H](C(=O)O)CC4)n4ncnc(N)c34)[nH]c12 [OSI-027] (partner 0.5 µM)
In outline:
as §1

Compound in the experiment “Apatinib + AZD7762”: N#CC1(c2ccc(NC(=O)c3cccnc3NCc3ccncc3)cc2)CCCC1 [Apatinib] + NC(=O)Nc1cc(-c2cccc(F)c2)sc1C(=O)N[C@H]1CCCNC1 [AZD7762] (partner 0.2 µM)
In short, it runs like this: as §1

Compound in the experiment “Metformin + Foretinib”: CN(C)C(=N)NC(=N)N [Metformin] + COc1cc2c(Oc3ccc(NC(=O)C4(C(=O)Nc5ccc(F)cc5)CC4)cc3F)ccnc2cc1OCCCN1CCOCC1 [Foretinib] (partner 0.25 µM)
In short, it runs like this:
as §1

For NCI-H1915, the relative viability with Metformin + Lapatinib (first compound 31.62 µM) worked out at 1.07; with Metformin + Lapatinib (first compound 100 µM), 0.973; with Metformin + Lapatinib (first compound 316.23 µM), 0.976; in the experiment with Metformin + Lapatinib (first compound 1000 µM), 1; with Apatinib + OSI-027 (first compound 0.08 µM) it was 0.67; with Apatinib + OSI-027 (first compound 0.253 µM) it was 0.614. Besides, the relative viability in the experiment with Apatinib + OSI-027 (first compound 0.8 µM) is 0.672; with Apatinib + OSI-027 (first compound 2.53 µM), 0.537; in the experiment with Apatinib + OSI-027 (first compound 8 µM), 0.503; with Apatinib + AZD7762 (first compound 0.08 µM) it was 0.733; with Apatinib + AZD7762 (first compound 0.253 µM) it was 0.685; in the experiment with Apatinib + AZD7762 (first compound 0.8 µM) it was 0.648. The relative viability in the experiment with Apatinib + AZD7762 (first compound 2.53 µM) was found to be 0.567; with Apatinib + AZD7762 (first compound 8 µM) it was 0.505; with Metformin + Foretinib (first compound 31.62 µM) it was 1.04; with Metformin + Foretinib (first compound 100 µM), 1.15; with Metformin + Foretinib (first compound 316.23 µM) it was 1.07; with Metformin + Foretinib (first compound 1000 µM) it was 1.18.

In the case of BEN, the relative viability amounted to 0.976 with Metformin + Lapatinib (first compound 10 µM); 1.12 with Metformin + Lapatinib (first compound 31.62 µM); 1.15 with Metformin + Lapatinib (first compound 100 µM); 0.925 in the experiment with Metformin + Lapatinib (first compound 316.23 µM); 0.583 in the experiment with Metformin + Lapatinib (first compound 1000 µM); 0.283 with Apatinib + OSI-027 (first compound 0.08 µM). The relative viability in the experiment with Apatinib + OSI-027 (first compound 0.253 µM) was 0.277; with Apatinib + OSI-027 (first compound 0.8 µM), 0.3; in the experiment with Apatinib + OSI-027 (first compound 2.53 µM), 0.299; with Apatinib + OSI-027 (first compound 8 µM), 0.317; with Apatinib + AZD7762 (first compound 0.08 µM), 0.529; with Apatinib + AZD7762 (first compound 0.253 µM), 0.67. Besides, the relative viability worked out at 0.694 with Apatinib + AZD7762 (first compound 0.8 µM); 0.449 with Apatinib + AZD7762 (first compound 2.53 µM); 0.621 with Apatinib + AZD7762 (first compound 8 µM); 1.08 with Metformin + Foretinib (first compound 10 µM); 1.25 with Metformin + Foretinib (first compound 31.62 µM); 1.04 with Metformin + Foretinib (first compound 100 µM). In addition, the results for the relative viability with Metformin + Foretinib (first compound 316.23 µM) and with Metformin + Foretinib (first compound 1000 µM) were 0.799 and 1.33, respectively.

As to NCI-H1355, the relative viability with Metformin + Lapatinib (first compound 10 µM) stood at 0.884; with Metformin + Lapatinib (first compound 31.62 µM), 0.955; with Metformin + Lapatinib (first compound 100 µM) it was 0.946; with Metformin + Lapatinib (first compound 316.23 µM), 0.982; with Metformin + Lapatinib (first compound 1000 µM), 1.06; in the experiment with Apatinib + OSI-027 (first compound 0.08 µM) it was 0.391. Also, the relative viability is 0.396 with Apatinib + OSI-027 (first compound 0.253 µM); 0.394 in the experiment with Apatinib + OSI-027 (first compound 0.8 µM); 0.374 with Apatinib + OSI-027 (first compound 2.53 µM); 0.364 with Apatinib + OSI-027 (first compound 8 µM); 0.699 with Apatinib + AZD7762 (first compound 0.08 µM); 0.812 with Apatinib + AZD7762 (first compound 0.253 µM). Moreover, the relative viability in the experiment with Apatinib + AZD7762 (first compound 0.8 µM) is 0.593; with Apatinib + AZD7762 (first compound 2.53 µM), 0.447; in the experiment with Apatinib + AZD7762 (first compound 8 µM) it was 0.457; with Metformin + Foretinib (first compound 10 µM), 0.941; in the experiment with Metformin + Foretinib (first compound 31.62 µM), 1.05; with Metformin + Foretinib (first compound 100 µM) it was 0.998. Besides, the relative viability is 0.972 with Metformin + Foretinib (first compound 316.23 µM) and 0.99 in the experiment with Metformin + Foretinib (first compound 1000 µM).

For NCI-H1975, the relative viability came out at 0.98 with Metformin + Lapatinib (first compound 10 µM); 1.27 with Metformin + Lapatinib (first compound 31.62 µM); 0.935 with Metformin + Lapatinib (first compound 100 µM); 1.05 with Metformin + Lapatinib (first compound 316.23 µM); 1.06 in the experiment with Metformin + Lapatinib (first compound 1000 µM); 0.718 in the experiment with Apatinib + OSI-027 (first compound 0.08 µM). Further, the relative viability amounted to 0.901 with Apatinib + OSI-027 (first compound 0.253 µM); 0.55 in the experiment with Apatinib + OSI-027 (first compound 0.8 µM); 0.418 with Apatinib + OSI-027 (first compound 2.53 µM); 0.42 with Apatinib + OSI-027 (first compound 8 µM); 0.754 with Apatinib + AZD7762 (first compound 0.253 µM); 0.71 with Apatinib + AZD7762 (first compound 0.8 µM). The relative viability is 0.514 in the experiment with Apatinib + AZD7762 (first compound 2.53 µM); 0.655 with Apatinib + AZD7762 (first compound 8 µM); 1.16 with Metformin + Foretinib (first compound 10 µM); 1.1 in the experiment with Metformin + Foretinib (first compound 31.62 µM); 1.08 with Metformin + Foretinib (first compound 100 µM); 1.06 with Metformin + Foretinib (first compound 316.23 µM). The relative viability with Metformin + Foretinib (first compound 1000 µM) is 1.21.

Consider NCI-H2087, for which the relative viability with Metformin + Lapatinib (first compound 10 µM) was determined as 0.597; with Metformin + Lapatinib (first compound 31.62 µM), 0.902; with Metformin + Lapatinib (first compound 100 µM) it was 1.02; with Metformin + Lapatinib (first compound 316.23 µM) it was 1.06; in the experiment with Metformin + Lapatinib (first compound 1000 µM) it was 0.895; in the experiment with Apatinib + OSI-027 (first compound 0.08 µM) it was 0.607. For the same cell line, the relative viability was 0.458 in the experiment with Apatinib + OSI-027 (first compound 0.253 µM); 0.468 with Apatinib + OSI-027 (first compound 0.8 µM); 0.492 with Apatinib + OSI-027 (first compound 2.53 µM); 0.426 with Apatinib + OSI-027 (first compound 8 µM); 1.25 with Apatinib + AZD7762 (first compound 0.08 µM); 1.25 in the experiment with Apatinib + AZD7762 (first compound 0.253 µM). Also, the relative viability worked out at 1.32 with Apatinib + AZD7762 (first compound 0.8 µM); 1.05 with Apatinib + AZD7762 (first compound 2.53 µM); 1.05 in the experiment with Apatinib + AZD7762 (first compound 8 µM); 0.966 with Metformin + Foretinib (first compound 31.62 µM); 1.12 with Metformin + Foretinib (first compound 100 µM); 0.891 with Metformin + Foretinib (first compound 316.23 µM). Moreover, in the experiment with Metformin + Foretinib (first compound 1000 µM), the relative viability was 1.06.

The values above are taken from the supplement of paper PMC10307832.
